Experiment: RP, Waters ACQUITY UPLC BEH C8, 100 × 2.1 mm, 1.7 µm, 55 °C, 0.6 mL/min, estimated dead time 0.37 min; A: 50% water + 25% acetonitrile + 25% isopropanol + 0.05% acetic acid + 20 µM phosphoric acid + 5 mM ammonium acetate; B: 50% acetonitrile + 50% isopropanol + 0.05% acetic acid + 5 mM ammonium acetate; gradient (min/%B) 0/1 0.1/1 2/30 11.5/90 12/99.9 12.5/99.9 12.55/65 12.65/30 12.75/1 12.95/1 13.25/1
Conditions: stereoisomer not certain

LC retention time [min]	SMILES
9.14	CCCCCCCCCCCCCCCCCCCCCCCC(=O)NC(CO)C(O)CCCCCCCCCCCCCCC (centres undefined) [Cer(d18:0/24:0)]
2.3	CCCCCCCCCCCCCCCCCC(=O)OC(CO)COP(=O)([O-])OCC[N+](C)(C)C (centres undefined) [LPC(0:0/18:0)]
6.5	CCCCCCCCCCCC=CC(O)C(COP(=O)([O-])OCC[N+](C)(C)C)NC(=O)CCCCCCCCCCCCCCCCCCC (centres undefined) [SM(d16:1/20:0)]
8.19	CCCCCCCCCCCCCCCCCC(=O)OCC(CO)OC(=O)CCCCCCCCCCCCCCC (centres undefined) [DG(18:0/16:0)]
9.26	CCCCCCCCCCCCCC=CC(O)C(CO)NC(=O)CCCCCCCCCCCCCCCCCCCCCCCC (centres undefined) [Cer(d18:1/25:0)]

The remaining lines, values behind:

SMILES	LC retention time [min]
CCCCCCCCCCCCCC(=O)OC(CC(=O)[O-])C[N+](C)(C)C (centres undefined) [Tetradecanoylcarnitine CAR(14:0)]	1.26
CCCCCCCCCCCCCCCC(=O)OCC(O)COP(=O)(O)OCCN (centres undefined) [LPE(16:0/0:0)]	1.93
CCCCCCCCCCCCCC=CC(O)C(COC1OC(CO)C(OC2OC(CO)C(O)C(O)C2O)C(O)C1O)NC(=O)CCCCCCCCCCCCCCCCCCCCC (centres undefined) [LacCer(d18:1/22:0)]	7.86
CCCCCCCCCCCCCCCCC=COCC(O)COP(=O)(O)OCCN (centres undefined) [LPE(P-18:0/0:0)]	2.75
CCCCCCCCCCCCCCC(=O)OCC(O)COP(=O)([O-])OCC[N+](C)(C)C (centres undefined) [LPC(15:0/0:0)]	1.61
CCCCCCCCCCCCCCCCCCCCCC(=O)OCC(O)COP(=O)([O-])OCC[N+](C)(C)C (centres undefined) [LPC(22:0/0:0)]	3.73
CCCCCCCCCC(=O)OC(CC(=O)[O-])C[N+](C)(C)C (centres undefined) [Decanoylcarnitine CAR(10:0)]	0.609
CCCCCCCCCCCCCCCCCCCC(=O)OC(CC(=O)[O-])C[N+](C)(C)C (centres undefined) [Arachidyl carnitine CAR(20:0)]	2.88
CCCCCCCCCCCCCC=CC(O)C(N)COP(=O)(O)O (centres undefined) [Sphingosine-1-phosphate]	1.52
